Experimental data taken from paper PMC12476087, “Loading of Dicarboxylatoplatinum(II)‐NHC Complexes in Bacterial Ghosts as an Advanced Development in Cancer Therapy” (Archiv Der Pharmazie, 2025).

Assays:
A2780wt cells = experiment: MTT assay, A2780wt cells; assay type: cell-based; conditions: for IC50: MTT assay, 72 h exposure
Protocol: (§1) Carboplatin, a second‐generation platinum drug commonly used as part of standard first‐line chemotherapy for ovarian carcinoma, was examined as a reference compound due to its clinical relevance. Additionally, the nonmalignant bone marrow stromal cell line HS‐5 was included as a control to assess specificity of the complexes toward cancer cells.
(§2) Unloaded BGs (4 × 10^8 EcN or 2 × 10^8 Ec NM522, which is equivalent to the highest tested BG concentration) were tested as controls.
(§3) The exponentially growing cells were seeded at a density of 8 × 10^3 cells/well (A2780wt/cis) or 1 × 10^4 cells/well (HS‐5), respectively, into clear flat‐bottom 96‐well plates in triplicates. […] After another 72 h of incubation, the cellular metabolic activity was measured as an indicator of cell viability employing an MTT assay. Hereby, 20 µL of a 5 mg/mL MTT solution was added to each well, respectively. After 3 h of incubation, the medium was discarded, and the formazan crystals formed were dissolved in DMSO for 15 min with gentle shaking. […] The OD at 620 nm was subtracted from the OD at 595 nm. The OD of the medium was subtracted to exclude the unspecific staining caused by FCS‐containing medium. Cells treated with vehicle control (0.1% DMF) only were set at 100% metabolic activity. The IC50 values were calculated with Prism 8.0 (GraphPad Software Inc., Boston, MA, USA) using nonlinear regression. Significance was evaluated via a one sample t‐test performed with Prism 8.0.

[1] = Stability in D2O (1H NMR); assay type: physicochemical; conditions: for behaviour in D2O (aquation): rt, up to 24 h
Protocol: Stability of the complexes 1–4 in CDCl3, CD3OD, CD3CN, DMF‐d7, and D2O was monitored by ^1H NMR spectroscopy at ambient temperature. Solutions of the complexes (approximately 3 mg/mL) were prepared in each solvent, and ¹H NMR spectra were recorded periodically over 24 h.

A2780cis cells = experiment: MTT assay, A2780cis cells; assay type: cell-based; conditions: for Resistance factor RF = IC50(A2780cis)/IC50(A2780wt): 72 h; for IC50: 72 h exposure
Protocol: as §1, §2, §3

[2] = Stability in aqueous solution (RP‐HPLC‐MS); assay type: physicochemical; conditions: 0.5 mM in water, rt; m/z 446.1 (1, 20 h), m/z 602.2 (2)
Protocol: Samples were analyzed by HPLC‐MS immediately after preparation and at selected time points during 24 h of incubation at rt. […] As stationary phase, a Gemini C18 110 Å; 150 × 4.6 mm; 3.0 µm particles (Phenomenex Ltd.; Aschaffenburg, Germany) column was employed and equipped with a 4 × 3 mm guard column of the identical material. […] The oven temperature was maintained at 30°C and the MS analysis was performed with split flow 1:5 of the eluate in positive ionization mode (capillary voltage 4.5 kV; source temperature 320°C; dry gas 10 L/min; nebulizer gas pressure 30 psi, scan range m/z 50–1500). The injection volume of the sample solution (V sample) was set to 10 µL. Sample degradation was evaluated by integration of the extracted ion chromatograms at the indicated m/z ± 0.5 (based on the monoisotopic peaks).

[3] = Stability in RPMI 1640 cell culture medium (HPLC‐MS); assay type: physicochemical; conditions: RPMI 1640 without FCS, 1 h incubation, extracted ion chromatograms
Protocol: Additional stability studies in aqueous media and RPMI 1640 (without FCS) were carried out using RP‐HPLC‐MS. For this purpose, 0.5 mM solutions of complexes 1 and 2 were prepared in Milli‐Q water and RPMI 1640. Samples were analyzed by HPLC‐MS immediately after preparation and at selected time points during 24 h of incubation at rt. HPLC‐MS measurements were performed on Agilent 1260 system hyphenated to an MS Single Quad detector from Agilent with ESI (LC‐MSD from Agilent Technologies, Santa Clara, CA, USA). As stationary phase, a Gemini C18 110 Å; 150 × 4.6 mm; 3.0 µm particles (Phenomenex Ltd.; Aschaffenburg, Germany) column was employed and equipped with a 4 × 3 mm guard column of the identical material. The mobile phase flow was set to 0.8 mL/min; and consisted of a mixture of water (solvent A) – MeOH (solvent B) using gradient elution (0 min 5% B; 3 min 5% B; 17 min 98% B; 20 min stop; post time 10 min). The oven temperature was maintained at 30°C and the MS analysis was performed with split flow 1:5 of the eluate in positive ionization mode (capillary voltage 4.5 kV; source temperature 320°C; dry gas 10 L/min; nebulizer gas pressure 30 psi, scan range m/z 50–1500). The injection volume of the sample solution (V sample) was set to 10 µL. Sample degradation was evaluated by integration of the extracted ion chromatograms at the indicated m/z ± 0.5 (based on the monoisotopic peaks).

Row | Compound | IC50 (A2780wt cells) [µM] | metabolic activity of A2780wt cells (A2780wt cells; free (non‐loaded) compound, 25 µM, 72 h) [%] | behaviour in D2O (aquation) [1] | complex that had released its acetates ([1]; within 5 min of dissolution) | Resistance factor RF = IC50(A2780cis)/IC50(A2780wt) (A2780cis cells) | IC50 (A2780cis cells) [µM] | change of HPLC‐MS signal intensity in aqueous solution [2] | concentration remaining in RPMI 1640 [3]
1 | CCN1[C]([Pt]([O]C(C)=O)([O]C(C)=O)[SH](C)(C)=O)N(CC)c2ccccc21 [Compound 1, (SP‐4‐2)‐Diacetato(1,3‐diethylbenzimidazol‐2‐ylidene)(dimethylsulfoxide)platinum(II)] | 31.1 ± 2.39 | 85 | No significant spectral changes were observed during incubation for 24 h at rt | over 70% | 1.2 | 36.5 ± 2.85 | No significant decrease in the intensity of this signal | approximately 37%
2 | CCN1[C]([Pt]([O]C(=O)C(Cl)Cl)([O]C(=O)C(Cl)Cl)[SH](C)(C)=O)N(CC)c2ccccc21 [Compound 3, (SP‐4‐2)‐Bis(dichloroacetato)(1,3‐diethylbenzimidazol‐2‐ylidene)(dimethylsulfoxide)platinum(II)] | 58.9 ± 2.05 | – | – | – | – | 83.1 ± 4.79 | – | –
3 | (SP‐4‐2)‐Bis(dichloroacetato)bis(1,3‐diethylbenzimidazol‐2‐ylidene)platinum(II) [Compound 4] | 37.9 ± 1.58 | – | – | – | 0.9 | 34.9 ± 1.7 | – | –
4 | (SP‐4‐2)‐Diacetatobis(1,3‐diethylbenzimidazol‐2‐ylidene)platinum(II) [Compound 2] | 40.8 ± 2.34 | – | fast initial aquation | – | 1.0 | 39.3 ± 2.8 | progressively decreased over time | ~7%
